What all share (assay type): cell-based
For assay [1], the system named is IL-5. The assay can be described thus: Cytokine inhibition in PHA-stimulated primary human PBMCs: IL-5. The settings on record: PBMCs stimulated with PHA; for IC50: Homo sapiens, PBMC, ELISA. As to the method: (§1) Cytokine production was measured using commercially available human ELISA assay kits (from Cell Science, Inc.) following the manufacturers instructions.

The subject of assay [2] is IL-10. The assay can be described thus: Cytokine inhibition in PHA-stimulated primary human PBMCs: IL-10. The settings on record: PBMC, PBMCs stimulated with PHA, ELISA. On the procedure:
as §1

Assay [3] concerns INF-γ. Description: Cytokine inhibition in PHA-stimulated primary human PBMCs: INF-γ. To be noted: PBMCs stimulated with PHA; for IC50: Homo sapiens, PBMC, ELISA. As to the method:
as §1

The subject of assay [4] is IL-13. Description: Cytokine inhibition in PHA-stimulated primary human PBMCs: IL-13. To be noted: PBMCs stimulated with PHA; for IC50: Homo sapiens, PBMC, ELISA. On the procedure:
as §1

Assay [5] concerns TNF-α. Description: Cytokine inhibition in PHA-stimulated primary human PBMCs: TNF-α. To be noted: PBMCs stimulated with PHA; for IC50: Homo sapiens, PBMC, ELISA. As to the method:
as §1

Assay [6] relates to IL-2 production. The assay can be described thus: Inhibition of IL-2 production in PHA-activated Jurkat cells. The settings on record: Homo sapiens, PHA 2.5 μg/mL, 20 hours. Put shortly: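 Jurkat cells (0.5 million/well, 1% FBS) were preincubated with compound for 10 min, then stimulated with PHA (2.5 μg/mL final) for 20 h at 37 °C. Supernatant IL-2 was measured by ELISA. IC50 is the concentration giving 50% inhibition of maximal stimulated IL-2 relative to a non-stimulated control.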

Assay [7] deals with IL-4. Description: Cytokine inhibition in PHA-stimulated primary human PBMCs: IL-4. To be noted: PBMCs stimulated with PHA; for IC50: Homo sapiens, PBMC, ELISA. As to the method:
as §1

Assay [8] relates to GM-CSF. Description: Cytokine inhibition in PHA-stimulated primary human PBMCs: GM-CSF. To be noted: PBMCs stimulated with PHA; for IC50: Homo sapiens, PBMC, ELISA. As to the method:
as §1

The test system of assay [9] is IL-2. The assay can be described thus: Cytokine inhibition in PHA-stimulated primary human PBMCs: IL-2. To be noted: PBMCs stimulated with PHA; for IC50: Homo sapiens, PBMC, ELISA. As to the method: as §1

Counter-ions that a name gives are not always drawn. Where only a bound is given, the exact number is not on record here.

Regarding `COc1ccc2c(c1)nc(C(F)(F)F)n2-c1ccc(NC(=O)c2c(F)ccc(F)c2F)cc1` [Compound 1, 2,3,6-Trifluoro-N-[4-(2-trifluoromethyl-5-methoxy-benzoimidazol-1-yl)-phenyl]-benzamide], the IC50 in [1] is 26 nM; in [2] it was over 1000 nM; in assay [3], 95 nM; in assay [4] it was 73 nM; in assay [5], 424 nM; in assay [6] (bins given in nM), under 100 nM. For the same molecule, the IC50 in assay [7] was 651 nM; in [8], 788 nM; in [9], 29 nM.
Take `COc1ccc2c(c1)nc(C(F)(F)F)n2-c1ccc(NC(=O)c2ccc3c(c2)OCO3)cc1` [Compound 75, Benzo[1,3]dioxole-5-carboxylic acid {N-[4-(2-trifluoromethyl-5-methoxy-benzoimidazol-1-yl)-phenyl]} amide]: the “Inhibition of IL-5 (in words)” value in [1] is recorded as “potent inhibitors”. For the same molecule, the “Inhibition of INF-γ (in words)” value in [3] is listed as “potent inhibitors”. For the same molecule, the “Inhibition of IL-13 (in words)” value in assay [4] is “potent inhibitors”. Further, the “Inhibition of TNF-α (in words)” value in assay [5] is “potent inhibitors”. The half-maximal inhibitory concentration (IC50) in assay [6] (bins given in nM) was 100 to 500 nM. The “Inhibition of IL-4 (in words)” value in assay [7] is recorded as “potent inhibitors”. In addition, the “Inhibition of GM-CSF (in words)” value in assay [8] is “potent inhibitors”. In addition, the “Inhibition of IL-2 (in words)” value in [9] is reported as “potent inhibitors”.
In assay [6] (bins given with μM limit), `COc1ccc2c(c1)nc(C(F)(F)F)n2-c1ccc(NC(=O)c2ccccc2OC)cc1` [Compound 128, 2-Methoxy-N-[4-(2-trifluoromethyl-5-methoxy-benzoimidazol-1-yl)-phenyl]-benzamide] returned a 50% inhibitory concentration (IC50) of over 1000 nM.
Same read-out and setting: the value for `COc1ccc2c(c1)nc(C(F)(F)F)n2-c1ccc(NC(=O)c2cc(C(F)(F)F)cc(C(F)(F)F)c2)cc1` [Compound 129, 3,5-Di-(trifluoromethyl)-N-[4-(2-trifluoromethyl-5-methoxy-benzoimidazol-1-yl)-phenyl]-benzamide] was over 1000 nM; that for `COc1ccc(OC)c(C(=O)Nc2ccc(-n3c(C(F)(F)F)nc4cc(OC)ccc43)cc2)c1` [Compound 130, 2,5-Dimethoxy-N-[4-(2-trifluoromethyl-5-methoxy-benzoimidazol-1-yl)-phenyl]-benzamide] was over 1000 nM.
`COc1ccc2c(c1)nc(C(F)(F)F)n2-c1ccc(NC(=O)Cc2ccc(OC)c(OC)c2)cc1` [Compound 131, 2-(3,4-dimethoxy-phenyl)-N-[4-(2-trifluoromethyl-5-methoxy-benzoimidazol-1-yl)-phenyl]-acetamide] displayed an IC50 in assay [6] (bins given with μM limit) of over 1000 nM.
On to `CC(=O)Oc1ccc2c(c1)nc(C(F)(F)F)n2-c1ccc(NC(=O)c2cccc(F)c2F)cc1` [Compound 132, 2,3-Difluoro-N-[4-(2-trifluoromethyl-5-acetoxy-benzoimidazol-1-yl)-phenyl]-benzamide], for which the 50% inhibitory concentration (IC50) in assay [6] (bins given in nM) was under 100 nM.
In assay [6] (bins given in nM), `CC(=O)c1ccc2c(c1)nc(C(F)(F)F)n2-c1ccc(NC(=O)c2cccc(F)c2F)cc1` [Compound 133, 2,3-Difluoro-N-[4-(2-trifluoromethyl-5-acetyl-benzoimidazol-1-yl)-phenyl]-benzamide] returned an IC50 of 100 to 500 nM.
Consider `COc1ccc2c(c1)nc(C(F)(F)F)n2-c1ccc(NCc2c(F)cccc2F)cc1` [Compound 135, 2,6-Difluoro-N-[4-(2-trifluoromethyl-5-methoxy-benzoimidazol-1-yl)-phenyl]-benzylamine, HCl salt], for which the IC50 in assay [1] is 13 nM; in assay [2], 439 nM; in assay [3] it was 29 nM; in assay [4], 25 nM; in assay [5], 47 nM; in [6] (bins given in nM), under 100 nM. The IC50 came to 101 nM in [7], 99 nM in assay [8] and 3 nM in [9].

(Values after patent publication US20130142831A1, “COMPOUNDS FOR INFLAMMATION AND IMMUNE-RELATED USES” (Synta Pharmaceuticals Corp., priority 2004, published 2013).)
